Test results taken from article PMC3634512, “Inhibition of Human Transthyretin Aggregation by Non-Steroidal Anti-Inflammatory Compounds: A Structural and Thermodynamic Analysis” (International Journal of Molecular Sciences, 2013).

Tests used:
[1] = target: T1, Transthyretin (L55P variant) (Homo sapiens, UniProt P02766, L75P); experiment: ANS displacement from the hormone binding site (apparent Kd)
T1 construct: gene TTR; L55P TTR homotetramer

Transthyretin (WT-TTR) = target: T2, Transthyretin (WT-TTR) (Homo sapiens, UniProt P02766); experiment: crystal structure (soaked crystals); ANS displacement (apparent Kd); type: binding
T2 construct: WT-TTR homotetramer

Kd [1]: 1700 nM | Kd (Transthyretin (WT-TTR)): 1400 nM
Compound: Cc1ccc(Nc2c(F)cccc2Cl)c(CC(=O)O)c1 [LUM, lumiracoxib]
